Experimental findings from US4954482A, “New glycopeptide antibiotic” (Pfizer Inc., priority 1986, dated 1990) are described below.

In this assay the test system is rumen fluid. Nature of the assay: In vitro rumen technique: propionic acid production. The settings on record: 10 micrograms per milliliter; rumen fluid incubated at 39° C. about 16 hours. Type of assay: cell-based, cow. On the procedure: The value of animal feeds has generally been determined directly by feeding the animal. British Patent Specification No. 1,197,826 details an in vitro rumen technique whereby the changes occurring in feeds brought about by microorganisms are measured more readily and with great accuracy in the evaluation of animal feeds. This technique involves the use of an apparatus in which the digestive processes of the animals are conducted and studied in vitro. The animal feeds, rumen inoculum and various growth promotants are introduced into and withdrawn from a laboratory unit under carefully controlled conditions and the changes taken place are studied critically and progressively during the consumption of the feed by the microorganisms. […] The change in propionic acid content is expressed as percent of the propionic acid content found in the control rumen fluid. Long term in vivo feeding studies are used to show a reliable correlation between propionic acid increase in the rumen fluid and improved animal performance. […]
After incubation, 5 ml. of the sample is mixed with 1 ml. of 25% metaphosphoric acid. […] Samples are then analyzed by gas-liquid chromatography by the mthod of D. W. Kellog, J. Dairy Science, 52, 1690, 1969. Peak heights for acetic, propionic and butyric acids are determined for samples from untreated and treated incubation flasks.

As to `CC[C@@H](C(=O)[C@@H](C)[C@@H](O)[C@H](C)[C@@H]1O[C@@H]([C@@H](CC)C(=O)O)CC[C@@H]1C)[C@H]1O[C@]2(C=C[C@@H](O)[C@]3(CC[C@@](C)([C@H]4CC[C@](O)(CC)[C@H](C)O4)O3)O2)[C@H](C)C[C@@H]1C` [salinomycin], the “increase in the production of propionic acid over control” value was approximately 46%.
